According to patent publication US5138069A (E. I. Du Pont de Nemours and Company, priority 1988, dated 1992):
Where two headings read alike, the source gives them in different places.

Tests used:
[1] = system: Renal Hypertensive Rats; test: Antihypertensive effects in renal hypertensive rats; type: in vivo; conditions: Rattus norvegicus; for minimal effective dose at 3 mg/kg / minimal effective dose at 30 mg/kg: Table 26; for minimal effective dose at 3 mg/kg / minimal effective dose at 10 mg/kg: intravenous; for minimal effective dose at 30 mg/kg / minimal effective dose at 100 mg/kg: oral; for minimal effective dose at 10 mg/kg / minimal effective dose at 100 mg/kg: Table 25; for minimal effective dose at 10 mg/kg: 10 mg/kg or less; for minimal effective dose at 100 mg/kg: 100 mg/kg or less
Procedure, shortened: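 Renal hypertensive rats (renin-driven AII elevation) dosed orally at 100 mg/kg and/or i.v. via jugular cannula at 10 mg/kg; a second set used 30 mg/kg oral and 3 mg/kg i.v. Arterial pressure recorded continuously via carotid cannula and compared with pretreatment levels.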

[2] = molecular target: AII receptor; test: Angiotensin II receptor binding (displacement of 3H-AII); conditions: read-out: Angiotensin II Receptor Binding IC50, rat adrenal cortical microsomes, 2 nM 3H-AII, 1 hour, room temperature
Procedure, shortened: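 The receptor source was rat adrenal cortical microsomes in Tris buffer, incubated with 2 nM ³H-AII plus or minus test compound for 1 h at room temperature. Bound and free ligand were separated by rapid filtration on glass-fibre filters. Filter-bound ³H-AII was counted by scintillation.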

| SMILES | IC50 ([2]; Table 26) | IC50 ([2]; Table 25) | minimal effective dose at 3 mg/kg [1] | minimal effective dose at 30 mg/kg [1] | minimal effective dose at 10 mg/kg [1] | minimal effective dose at 100 mg/kg [1] | other results |
| --- | --- | --- | --- | --- | --- | --- | --- |
| CCC/C=C\c1nc(Cl)c(CO)n1Cc1ccc(-c2ccccc2C(=O)O)cc1 [Example 266, 1-[(2-Carboxybiphenyl-4-yl)-methyl]-4-chloro-5-hydroxymethyl-2-(cis-pent-1-en-1-yl)imidazole] |  | 2300 nM |  |  | < 10 mg/kg |  |  |
| CCCCc1nc(Cl)c(CC(=O)O)n1Cc1ccc(OCc2ccccc2C(=O)O)cc1 [Example 192, 1-[4-(2-Carboxybenzyloxy)benzyl]-2-butyl-4-chloroimidazole-5-acetic acid] |  | 2300 nM |  |  |  | > 100 mg/kg |  |
| CCCCc1nc(Cl)c(CO)n1Cc1ccc(-c2ccccc2C(=O)NOCc2ccccc2)cc1 [Example 181] |  | 4900 nM |  |  | < 10 mg/kg | > 100 mg/kg |  |
| CCCCc1nc(Cl)c(CC(=O)O)n1Cc1ccc(-c2ccccc2C(=O)O)cc1 [Example 115] |  | 430 nM |  |  | < 10 mg/kg | < 100 mg/kg |  |
| CCCc1nc(C)c(C=O)n1Cc1ccc(-c2ccccc2C(=O)O)cc1 [Example 320, 1-[(2'-Carboxybiphenyl-4-yl)methyl]-4-methyl-2-propylimidazole-5-carboxaldehyde] | 880 nM |  | < 3 mg/kg | < 30 mg/kg |  |  |  |
| CCCCc1nc(Cl)c(CO)n1-c1ccc(NC(=O)c2ccccc2NS(=O)(=O)C(F)(F)F)cc1 [Example 325, 2-n-Butyl-4-chloro-5-hydroxymethyl-1-[4-((N-trifluoromethanesulfonyl)-anthranilamido)phenyl]imidazole] |  | 730 nM |  |  | < 10 mg/kg |  |  |
| CCCCc1nc(Cl)c(CCCF)n1Cc1ccc(-c2ccccc2C(=O)O)cc1 [Example 292] |  | 700 nM |  |  | < 10 mg/kg | < 100 mg/kg |  |
| CCCCc1nc(C(F)(F)F)c(CO)n1Cc1ccc(-c2ccccc2C(=O)O)cc1 [Example 92, 1-[(2'-carboxybiphenyl-4-yl)-methyl]-2-butyl-5-hydroxymethyl-4-trifluoromethylimidazole] |  | 62 nM |  |  | < 10 mg/kg |  |  |
| CCCCc1nc(Cl)c(/C=C/C(C)O)n1Cc1ccc(-c2ccccc2C(=O)OC)cc1 (stereo not drawn) [Example 229, 4-[1-(2'-Carbomethoxybiphenyl-4-yl)methyl-2-butyl-4-chloroimidazol-5-yl]-3-buten-2-ol, E isomer] |  | 2100 nM |  |  | < 10 mg/kg | < 100 mg/kg |  |
| CCCCc1nc(Cl)c(Cn2cncn2)n1Cc1ccc(C(=O)c2ccccc2C(=O)O)cc1 [Example 204, 2-Butyl-1-[4-(2-Carboxybenzoyl)benzyl]-4-chloro-5-((1,2,4-triazol-1-yl)methyl)imidazole] |  |  |  |  |  |  | minimal effective dose at 10 mg/kg ([1]; tested as sodium salt): < 10 mg/kg; minimal effective dose at 100 mg/kg ([1]; tested as sodium salt): > 100 mg/kg; IC50 ([2]; Table 25, tested as sodium salt): 1900 nM |
| CCCCc1nc(Cl)c(C=NNC2=NCCN2)n1Cc1ccc(-c2ccccc2-c2nnn[nH]2)cc1 [Example 327A] | 290 nM |  | < 3 mg/kg | < 30 mg/kg |  |  |  |
| CCCc1nc(C(F)(F)C(F)(F)C(F)(F)C(F)(F)C(F)(F)C(F)(F)F)c(CO)n1Cc1ccc(-c2ccccc2C(=O)O)cc1 [Example 124I] | 2500 nM |  | < 3 mg/kg | > 30 mg/kg |  |  |  |
| CCCc1nc(C(=O)O)c(CO)n1Cc1ccc(-c2ccccc2-c2nnn[nH]2)cc1 [Example 335, 5-Hydroxymethyl-2-n-propyl-1-[(2'-(1H-tetrazol-5-yl)biphenyl)methyl]-imidazole-4-carboxylic acid] | 260 nM |  | < 3 mg/kg | < 30 mg/kg |  |  |  |
| CCCCc1nc(CO)c(Cl)n1Cc1ccc(-c2ccccc2-c2nn[nH]n2)cc1 [Example 118] |  | 89 nM |  |  | < 10 mg/kg | < 100 mg/kg |  |
| CCCCc1nc(Cl)c(CC(=O)OC)n1Cc1ccc(NC(=O)[C@@H]2CCCC[C@H]2NS(=O)(=O)C(F)(F)F)cc1 (relative stereo) [Example 74 (trans compound), Methyl 2-butyl-4-chloro-1-[4-(trans-2-(trifluoromethanesulfonamido)cyclohexanecarboxamido)benzyl]imidazole-5-acetate] |  | 3900 nM |  |  | < 10 mg/kg | > 100 mg/kg |  |

The next lines start with results.

| IC50 ([2]; Table 26) | IC50 ([2]; Table 25) | SMILES | minimal effective dose at 3 mg/kg [1] | minimal effective dose at 30 mg/kg [1] | minimal effective dose at 10 mg/kg [1] | minimal effective dose at 100 mg/kg [1] | other results |
| --- | --- | --- | --- | --- | --- | --- | --- |
| 400 nM |  | CCCCc1nc(Br)c(C=O)n1Cc1ccc(-c2ccccc2C(=O)O)cc1 [Example 140D] | < 3 mg/kg | < 30 mg/kg |  |  |  |
| 20 nM |  | CCCc1nc(C(F)(F)F)c(C=O)n1Cc1ccc(-c2ccccc2-c2nnn[nH]2)cc1 [Example 140C] | < 3 mg/kg | < 30 mg/kg |  |  |  |
| 5700 nM |  | CCCCc1nc(Cl)c(C=O)n1Cc1cccc(-c2ccccc2-c2nnn[nH]2)c1 [Example 140L] | < 3 mg/kg | < 30 mg/kg |  |  |  |
| 130 nM |  | CCCc1nc(C(F)(F)F)c(CO)n1Cc1ccc(-c2ccccc2C(=O)O)cc1 [Example 124A] | < 3 mg/kg | < 30 mg/kg |  |  |  |
